Values quoted from earlier work in US20070166380A1, “ZOLPIDEM TABLETS” (priority 2005, published 2007).

Settings: after ingestion of the tablet

In the case of `Cc1ccc(-c2nc3ccc(C)cn3c2CC(=O)N(C)C)cc1` [zolpidem, N,N,6-trimethyl-2-(4-methylphenyl)-imidazo [1,2-s]pyridine-3-acetamide], the “time until zolpidem starts acting” value ('or less') is listed as 15 to 30 min and the duration of action (approximately) is listed as 4 to 6 h.
